Reference: patent US12448392B2, “Spiropiperidine derivatives” (89BIO LTD, priority 2016, dated 2025)
Counter-ions that a name gives are not always drawn.

Biological target: T1, recombinant human baculovirus-expressed GST-tagged FASN (Homo sapiens, UniProt P49327)
T1 construct: GST
Assay: biochemical
Settings: not given

T1 sequence (P49327 whole entry): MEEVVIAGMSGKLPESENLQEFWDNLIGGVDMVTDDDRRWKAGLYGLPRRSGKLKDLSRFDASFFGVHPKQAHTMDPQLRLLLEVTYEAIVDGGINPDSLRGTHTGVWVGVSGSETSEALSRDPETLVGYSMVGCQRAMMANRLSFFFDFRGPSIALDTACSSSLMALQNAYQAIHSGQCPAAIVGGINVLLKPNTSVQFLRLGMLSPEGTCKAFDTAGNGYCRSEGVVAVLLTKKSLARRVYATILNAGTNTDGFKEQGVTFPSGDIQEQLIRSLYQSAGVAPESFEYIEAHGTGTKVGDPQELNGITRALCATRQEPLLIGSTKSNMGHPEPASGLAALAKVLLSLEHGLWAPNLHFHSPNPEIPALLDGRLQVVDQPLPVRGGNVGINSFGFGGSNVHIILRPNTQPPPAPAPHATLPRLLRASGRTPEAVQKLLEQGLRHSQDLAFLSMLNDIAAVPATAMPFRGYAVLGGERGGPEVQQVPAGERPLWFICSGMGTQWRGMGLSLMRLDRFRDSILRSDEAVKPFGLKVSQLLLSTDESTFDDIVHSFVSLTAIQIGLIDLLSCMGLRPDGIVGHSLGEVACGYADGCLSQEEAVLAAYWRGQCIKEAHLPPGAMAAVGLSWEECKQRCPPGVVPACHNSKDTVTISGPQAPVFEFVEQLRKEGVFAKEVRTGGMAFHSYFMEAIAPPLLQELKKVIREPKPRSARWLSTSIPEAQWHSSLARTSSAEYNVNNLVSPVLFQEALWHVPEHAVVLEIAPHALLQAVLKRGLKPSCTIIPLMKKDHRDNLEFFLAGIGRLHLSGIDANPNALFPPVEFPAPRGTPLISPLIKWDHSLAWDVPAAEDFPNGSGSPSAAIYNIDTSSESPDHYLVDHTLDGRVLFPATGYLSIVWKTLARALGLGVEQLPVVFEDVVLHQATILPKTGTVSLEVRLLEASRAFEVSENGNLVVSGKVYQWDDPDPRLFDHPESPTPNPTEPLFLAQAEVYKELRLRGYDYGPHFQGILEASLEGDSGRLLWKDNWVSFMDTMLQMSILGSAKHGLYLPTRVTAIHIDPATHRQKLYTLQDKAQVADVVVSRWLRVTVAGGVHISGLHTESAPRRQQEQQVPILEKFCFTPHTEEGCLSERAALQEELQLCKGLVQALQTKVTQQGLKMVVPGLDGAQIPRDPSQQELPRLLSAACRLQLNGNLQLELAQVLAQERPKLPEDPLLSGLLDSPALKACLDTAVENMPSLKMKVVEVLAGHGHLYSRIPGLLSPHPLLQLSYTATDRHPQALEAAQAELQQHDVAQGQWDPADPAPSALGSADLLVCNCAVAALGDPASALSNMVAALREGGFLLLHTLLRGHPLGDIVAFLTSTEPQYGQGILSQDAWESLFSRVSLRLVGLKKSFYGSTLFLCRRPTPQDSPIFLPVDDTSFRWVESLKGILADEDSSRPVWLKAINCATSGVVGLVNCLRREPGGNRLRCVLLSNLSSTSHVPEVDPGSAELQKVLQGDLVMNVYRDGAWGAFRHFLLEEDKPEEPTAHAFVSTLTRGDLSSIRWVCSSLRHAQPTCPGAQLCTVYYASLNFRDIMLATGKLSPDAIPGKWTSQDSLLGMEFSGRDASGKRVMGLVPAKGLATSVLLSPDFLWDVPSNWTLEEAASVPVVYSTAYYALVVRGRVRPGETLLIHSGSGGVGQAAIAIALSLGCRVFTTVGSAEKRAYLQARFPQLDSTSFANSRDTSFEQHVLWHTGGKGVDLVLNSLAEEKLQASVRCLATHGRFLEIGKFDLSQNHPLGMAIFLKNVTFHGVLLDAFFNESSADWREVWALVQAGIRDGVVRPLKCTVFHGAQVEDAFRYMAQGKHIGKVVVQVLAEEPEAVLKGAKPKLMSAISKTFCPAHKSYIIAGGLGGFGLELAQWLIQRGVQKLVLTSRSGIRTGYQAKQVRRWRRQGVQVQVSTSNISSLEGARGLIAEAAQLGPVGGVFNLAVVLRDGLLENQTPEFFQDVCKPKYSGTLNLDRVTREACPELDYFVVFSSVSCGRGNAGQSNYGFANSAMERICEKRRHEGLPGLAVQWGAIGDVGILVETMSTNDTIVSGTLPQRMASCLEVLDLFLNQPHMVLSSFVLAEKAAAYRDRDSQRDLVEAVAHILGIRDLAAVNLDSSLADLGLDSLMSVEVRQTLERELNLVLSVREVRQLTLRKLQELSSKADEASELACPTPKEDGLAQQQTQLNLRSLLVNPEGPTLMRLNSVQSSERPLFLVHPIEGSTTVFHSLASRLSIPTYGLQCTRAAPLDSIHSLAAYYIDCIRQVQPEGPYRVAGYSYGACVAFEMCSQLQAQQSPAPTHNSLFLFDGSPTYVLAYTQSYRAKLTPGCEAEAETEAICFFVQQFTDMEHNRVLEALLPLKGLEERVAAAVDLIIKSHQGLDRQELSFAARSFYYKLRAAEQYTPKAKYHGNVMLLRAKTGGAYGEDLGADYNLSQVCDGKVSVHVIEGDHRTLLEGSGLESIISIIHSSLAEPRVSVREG

SMILES	IC50
CCC(=O)N1CCC2(CC1)OCc1cc(-c3ccccn3)ccc1O2 [Example 218, 1-[6-(2-Pyridyl)spiro[4H-1,3-benzodioxine-2,4′-piperidine]-1′-yl]propan-1-one, HCl]	1000 to 10000 nM
O=C(C1CC1)N1CCC2(CC1)OCc1cc(-c3ccccn3)ccc1O2 [Example 219, Cyclopropyl-[6-(2-pyridyl)spiro[4H-1,3-benzodioxine-2,4′-piperidine]-1′-yl]methanone, HCl]	1000 to 10000 nM
O=C([C@H]1CCCO1)N1CCC2(CC1)OCc1cc(-c3ccccn3)ccc1O2 [Example 220, [6-(2-Pyridyl)spiro[4H-1,3-benzodioxine-2,4′-piperidine]-1′-yl]-[(2R)-tetrahydrofuran-2-yl]methanone, HCl]	100 to 999 nM
CCC(=O)N1CCC2(CC1)OCc1cc(-c3cccnc3)ccc1O2 [Example 224, 1-[6-(3-Pyridyl)spiro[4H-1,3-benzodioxine-2,4′-piperidine]-1′-yl]propan-1-one, HCl]	1000 to 10000 nM
O=C(C1CC1)N1CCC2(CC1)OCc1cc(-c3cccnc3)ccc1O2 [Example 225, Cyclopropyl-[6-(3-pyridyl)spiro[4H-1,3-benzodioxine-2,4′-piperidine]-1′-yl]methanone, HCl]	1000 to 10000 nM
O=C([C@H]1CCCO1)N1CCC2(CC1)OCc1cc(-c3cccnc3)ccc1O2 [Example 229, [6-(3-Pyridyl)spiro[4H-1,3-benzodioxine-2,4′-piperidine]-1′-yl]-[(2R)-tetrahydrofuran-2-yl]methanone]	100 to 999 nM
O=C(C1CC1)N1CCC2(CC1)OCc1cc(-c3ccncc3)ccc1O2 [Example 230, Cyclopropyl-[6-(4-pyridyl)spiro[4H-1,3-benzodioxine-2,4′-piperidine]-1′-yl]-methanone, HCl]	1000 to 10000 nM
O=C([C@H]1CCCO1)N1CCC2(CC1)OCc1cc(-c3ccncc3)ccc1O2 [Example 231, [6-(4-Pyridyl)spiro[4H-1,3-benzodioxine-2,4′-piperidine]-1′-yl]-[(2R)-tetrahydrofuran-2-yl]methanone, HCl]	100 to 999 nM
CCC(=O)N1CCC2(CC1)OCc1cc(-c3ccncc3)ccc1O2 [Example 232, 1-[6-(4-Pyridyl)spiro[4H-1,3-benzodioxine-2,4′-piperidine]-1′-yl]propan-1-one, HCl]	1000 to 10000 nM

Same assay, conditions: 5 nM FASN, 150 μM NADPH, 10 μM acetyl-CoA, 25 μM malonyl-CoA, 90 minutes incubation; read-out: IC50 data for Compounds of Formula I, Activity

SMILES	IC50
Cc1c(-c2ccc3c(c2)C(O)CC2(CCN(C(N)=O)CC2)O3)ccc2cccnc12 (stereo not drawn) [Example 213, 4-Hydroxy-6-(8-methyl-7-quinolyl)spiro[chromane-2,4′-piperidine]-1′-carboxamide]	100 to 999 nM
CCC(=O)N1CCC2(CCc3cc(-c4ccccn4)ccc3O2)CC1 [Example 215, 1-[6-(2-Pyridyl)spiro[chromane-2,4′-piperidine]-1′-yl]propan-1-one, HCl]	1000 to 10000 nM
O=C(C1CC1)N1CCC2(CCc3cc(-c4ccccn4)ccc3O2)CC1 [Example 216, Cyclopropyl-[6-(2-pyridyl)spiro[chromane-2,4′-piperidine]-1′-yl]methanone, HCl]	1000 to 10000 nM
O=C([C@H]1CCCO1)N1CCC2(CCc3cc(-c4ccccn4)ccc3O2)CC1 [Example 217, [6-(2-Pyridyl)spiro[chromane-2,4′-piperidine]-1′-yl]-[(2R)-tetrahydrofuran-2-yl]methanone, HCl]	1000 to 10000 nM
CCC(=O)N1CCC2(CCc3cc(-c4cccnc4)ccc3O2)CC1 [Example 221, 1-[6-(3-Pyridyl)spiro[chromane-2,4′-piperidine]-1′-yl]propan-1-one, HCl]	1000 to 10000 nM
O=C(C1CC1)N1CCC2(CCc3cc(-c4cccnc4)ccc3O2)CC1 [Example 222, Cyclopropyl-[6-(3-pyridyl)spiro[chromane-2,4′-piperidine]-1′-yl]methanone, HCl]	1000 to 10000 nM
O=C([C@H]1CCCO1)N1CCC2(CCc3cc(-c4cccnc4)ccc3O2)CC1 [Example 223, [6-(3-Pyridyl)spiro[chromane-2,4′-piperidine]-1′-yl]-[(2R)-tetrahydrofuran-2-yl]methanone, HCl]	100 to 999 nM
CCC(=O)N1CCC2(CCc3cc(-c4ccncc4)ccc3O2)CC1 [Example 226, 1-[6-(4-Pyridyl)spiro[chromane-2,4′-piperidine]-1′-yl]propan-1-one, HCl]	1000 to 10000 nM
O=C(C1CC1)N1CCC2(CCc3cc(-c4ccncc4)ccc3O2)CC1 [Example 227, Cyclopropyl-[6-(4-pyridyl)spiro[chromane-2,4′-piperidine]-1′-yl]methanone, HCl]	1000 to 10000 nM
O=C([C@H]1CCCO1)N1CCC2(CCc3cc(-c4ccncc4)ccc3O2)CC1 [Example 228, [6-(4-Pyridyl)spiro[chromane-2,4′-piperidine]-1′-yl]-[(2R)-tetrahydrofuran-2-yl]methanone, HCl]	100 to 999 nM
Cc1nccc2cc(-c3cc4c(cc3F)OC3(CC4)CCN(C(N)=O)CC3)ccc12 [Example 234, 7-Fluoro-6-(1-methyl-6-isoquinolyl)spiro[chromane-2,4′-piperidine]-1′-carboxamide]	1000 to 10000 nM
NC(=O)N1CCC2(CCc3cc(-c4cc5ccccc5o4)ccc3O2)CC1 [Example 235, 6-(Benzofuran-2-yl)spiro[chromane-2,4′-piperidine]-1′-carboxamide]	1000 to 10000 nM
NC(=O)N1CCC2(CCc3cc(-c4cc5ccccc5[nH]4)ccc3O2)CC1 [Example 236, 6-(1H-Indol-2-yl)spiro[chromane-2,4′-piperidine]-1′-carboxamide]	1000 to 10000 nM
Cc1c(-c2cc(F)c3c(c2)CCC2(CCN(C(N)=O)CC2)O3)ccc2cccnc12 [Example 237, 8-Fluoro-6-(8-methyl-7-quinolyl)spiro[chromane-2,4′-piperidine]-1′-carboxamide]	1 to 99 nM
CONC(=O)N1CCC2(CCc3cc(-c4ccc5cccnc5c4C)cc(F)c3O2)CC1 [Example 238, 8-Fluoro-N-methoxy-6-(8-methyl-7-quinolyl)spiro[chromane-2,4′-piperidine]-1′-carboxamide]	1 to 99 nM
Cc1nccc2cc(-c3ccc4c(c3F)CCC3(CCN(C(N)=O)CC3)O4)ccc12 [Example 239, 5-Fluoro-6-(1-methyl-6-isoquinolyl)spiro[chromane-2,4′-piperidine]-1′carboxamide]	1000 to 10000 nM
Cc1c(-c2ccc3cccnc3c2C)ccc2c1CCC1(CCN(C(N)=O)CC1)O2 [Example 240, 5-Methyl-6-(8-methyl-7-quinolyl)spiro[chromane-2,4′-piperidine]-1′-carboxamide]	1000 to 10000 nM
Cc1c(-c2ccc3c(C)nccc3c2)ccc2c1CCC1(CCN(C(N)=O)CC1)O2 [Example 241, 5-methyl-6-(1-methyl-6-isoquinolyl)spiro[chromane-2,4′-piperidine]-1′-carboxamide]	1000 to 10000 nM
CONC(=O)N1CCC2(CCc3cc(-c4ccc5c(C)nccc5c4)cc(F)c3O2)CC1 [Example 242]	1 to 99 nM
Cc1c(-c2ccc3c(c2F)CCC2(CCN(C(N)=O)CC2)O3)ccc2cccnc12 [Example 243, 5-Fluoro-6-(8-methyl-7-quinolyl)spiro[chromane-2,4′-piperidine]-1′-carboxamide]	100 to 999 nM
Cc1cc2c(cc1-c1ccc3cccnc3c1C)CCC1(CCN(C(N)=O)CC1)O2 [Example 244, 7-Methyl-6-(8-methyl-7-quinolyl)spiro[chromane-2,4′-piperidine]-1′-carboxamide]	1000 to 10000 nM
